Literature values, collected in patent publication US20040219200A1, “Topical patch preparation containing a delayed-type hypersensitivity inducer and methods for using the same” (priority 2001, published 2004).

Details: research conducted in the 1950s in the US

For `O=[N+]([O-])c1ccc(Cl)c([N+](=O)[O-])c1` [DNCB, 1-chloro-2,4-dinitrobenzene], the Carcinogenicity is listed as “not carcinogenic”.
